In patent US7858635B2 (priority 2005, dated 2010):
Like-named read-outs stand apart in the source and are kept apart here.

Experiments:
M1 muscarinic receptor = target: T1, M1 muscarinic receptor (Homo sapiens, UniProt P11229); test: Functional mobilization of intracellular calcium (FLIPR, Fluo-3), M1-CHO cells; type: cell-based; settings: for Emax: 100% efficacy is the maximum response obtained with the Carbachol control, read-out: M1 Efficacy
T1 construct: expressed in transfected cells; host or cells: CHO cells (M1-CHO, under zeocin and G418 selection)
T1 sequence (P11229 1-460): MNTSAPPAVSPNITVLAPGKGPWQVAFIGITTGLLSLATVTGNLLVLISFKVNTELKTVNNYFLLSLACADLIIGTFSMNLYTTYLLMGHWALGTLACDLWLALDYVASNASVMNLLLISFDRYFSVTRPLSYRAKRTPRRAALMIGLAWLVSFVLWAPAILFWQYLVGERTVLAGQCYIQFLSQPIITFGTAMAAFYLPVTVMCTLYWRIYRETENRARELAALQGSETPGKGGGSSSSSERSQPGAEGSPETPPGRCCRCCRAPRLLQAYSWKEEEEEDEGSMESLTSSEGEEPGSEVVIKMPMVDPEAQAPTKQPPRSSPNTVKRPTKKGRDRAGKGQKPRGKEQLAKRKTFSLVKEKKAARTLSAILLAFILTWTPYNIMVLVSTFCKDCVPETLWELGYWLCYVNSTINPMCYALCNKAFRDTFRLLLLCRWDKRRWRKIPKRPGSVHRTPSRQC
Summary of the method: (§1)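 Intracellular calcium was tracked by fluorescence (488/540 nm) over 60 sec after compound addition to dye-loaded CHO cells expressing the receptor. Inhibitory activity used a 15 min pre-incubation before carbachol at the subtype EC80.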

M4 muscarinic receptor = target: T2, M4 muscarinic receptor (Homo sapiens, UniProt P08173); test: Functional mobilization of intracellular calcium (FLIPR, Fluo-3), M4-CHO cells; type: cell-based; settings: for Emax: 100% efficacy is the maximum response obtained with the Carbachol control, read-out: M4 Efficacy
T2 construct: expressed in transfected cells; host or cells: CHO cells (M4-CHO, under puromycin, zeocin and blasticidin selection)
T2 sequence (P08173 1-479): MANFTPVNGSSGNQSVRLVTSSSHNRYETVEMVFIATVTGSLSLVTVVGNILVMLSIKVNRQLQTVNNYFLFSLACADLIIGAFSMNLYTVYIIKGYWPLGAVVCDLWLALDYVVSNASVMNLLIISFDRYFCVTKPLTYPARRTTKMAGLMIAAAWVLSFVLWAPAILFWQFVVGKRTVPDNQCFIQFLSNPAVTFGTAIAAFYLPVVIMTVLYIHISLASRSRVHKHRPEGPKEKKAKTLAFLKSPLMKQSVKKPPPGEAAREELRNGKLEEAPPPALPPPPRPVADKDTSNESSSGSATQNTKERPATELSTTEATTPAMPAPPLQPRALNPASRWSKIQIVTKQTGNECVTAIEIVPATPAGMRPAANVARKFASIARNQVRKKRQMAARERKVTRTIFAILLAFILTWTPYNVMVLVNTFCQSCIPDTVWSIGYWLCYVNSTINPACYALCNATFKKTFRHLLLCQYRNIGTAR
Summary of the method: as §1

[1] = compound nos. 1-454, M1-CHO cells, calcium mobilization
[2] = compound nos. 1-454, M4-CHO cells, calcium mobilization

Row | Compound | Emax (M1 muscarinic receptor; compound nos. 1-454) | M1 Activity (M1 muscarinic receptor; [1]) | Emax (M4 muscarinic receptor; compound nos. 1-454) | M4 Activity (M4 muscarinic receptor; [2]) | M1 Activity (M1 muscarinic receptor; compound nos. 1-454) | M4 Activity (M4 muscarinic receptor; compound nos. 1-454) | Emax (M1 muscarinic receptor; compound nos. 455-509) | M1 Activity (M1 muscarinic receptor; compounds 455-509) | Emax (M4 muscarinic receptor; compound nos. 455-509) | M4 Activity (M4 muscarinic receptor; compounds 455-509)
1 | CCOC(=O)N1CCC(CN2CCC3(CC2)CN(C(C)=O)c2ccc(Cl)cc23)CC1 [compound 256] | < 65% | ++ (activity was measured to be between 0.7 μM and 3.0 μM) | < 55% | ++ (activity was measured to be between 0.1 μM and 4.0 μM) | – | – | – | – | – | –
2 | CC(=O)N[C@H]1CC2(CCN([C@@H]3C[C@@H]4CC[C@@H]3C4)CC2)c2ccccc21 [compound 158] | > 85% | +++ (activity was measured to be less than or equal to 0.7 μM) | > 70% | + (activity was measured to be greater than or equal to 4.0 μM) | – | – | – | – | – | –
3 | CCOC(=O)N1CCC(N2CCC3(CC2)CN(C(C)=O)c2ccc(-c4ccoc4)cc23)CC1 [compound 128] | < 65% | +++ (activity was measured to be less than or equal to 0.7 μM) | < 55% | ++ (activity was measured to be between 0.1 μM and 4.0 μM) | – | – | – | – | – | –
4 | CN(C)C(=O)N1CC2(CCN(C3CCN(c4cnccn4)CC3)CC2)c2cc(F)ccc21 [compound 444] | 65 to 85% | – | 55 to 70% | – | +++ (activity was measured to be less than or equal to 0.7 μM) | +++ (activity was measured to be less than or equal to 0.1 μM) | – | – | – | –
5 | CCc1nsc(N2CCC(N3CCC4(CC3)CN(C(C)=O)c3ccccc34)CC2)n1 [compound 498] | – | – | – | – | – | – | > 100% | +++ (activity was measured to be less than or equal to 2.0 μM) | 25 to 100% | ++ (activity was measured to be between 2.0 μM and 5.0 μM)
6 | CCCOC(=O)N1C2CCC1CC(N1CCC3(CC1)CN(C(=O)OCCOC)c1ccc(F)cc13)C2 (centres unmarked) [compound 405] | < 65% | – | < 55% | – | ++ (activity was measured to be between 0.7 μM and 3.0 μM) | + (activity was measured to be greater than or equal to 4.0 μM) | – | – | – | –
7 | COC(=O)N1CCC(CN2CCC3(CC2)CN(C(C)=O)c2ccc(F)cc23)CC1 [compound 129] | 65 to 85% | +++ (activity was measured to be less than or equal to 0.7 μM) | < 55% | + (activity was measured to be greater than or equal to 4.0 μM) | – | – | – | – | – | –
8 | COCCOC(=O)N1C2CCC1CC(N1CCC3(CC1)CN(C(=O)O[C@@H]1CCOC1)c1ccc(F)cc13)C2 (some centres unmarked) [compound 216] | > 85% | +++ (activity was measured to be less than or equal to 0.7 μM) | < 55% | + (activity was measured to be greater than or equal to 4.0 μM) | – | – | – | – | – | –
9 | COC(=O)N1CCC(N2CCC3(CC2)CN(C(C)=O)c2ccc(F)cc23)CC1 [compound 374] | 65 to 85% | ++ (activity was measured to be between 0.7 μM and 3.0 μM) | 55 to 70% | + (activity was measured to be greater than or equal to 4.0 μM) | – | – | – | – | – | –
10 | CCOC(=O)N1CCC(N2CCC3(CC2)CN(C(=O)OCCF)c2ccc(F)cc23)CC1 [compound 370] | 65 to 85% | +++ (activity was measured to be less than or equal to 0.7 μM) | > 70% | ++ (activity was measured to be between 0.1 μM and 4.0 μM) | – | – | – | – | – | –
11 | CCOC(=O)N1CCC(N2CCC3(CC2)CN(C(C)=O)c2ccc(-c4cccnc4)cc23)CC1 [compound 234] | 65 to 85% | +++ (activity was measured to be less than or equal to 0.7 μM) | 55 to 70% | +++ (activity was measured to be less than or equal to 0.1 μM) | – | – | – | – | – | –
12 | CCCOC(=O)N1CCC(CN2CCC3(CC2)CN(C(C)=O)c2ccc(C)cc23)CC1 [compound 306] | < 65% | + (activity was measured to be greater than or equal to 3.0 μM) | < 55% | + (activity was measured to be greater than or equal to 4.0 μM) | – | – | – | – | – | –
13 | COC(=O)N1CC2(CCN(C3CC4CCC(C3)N4C(=O)OC(C)C)CC2)c2cc(F)ccc21 (centres unmarked) [compound 97] | 65 to 85% | +++ (activity was measured to be less than or equal to 0.7 μM) | < 55% | + (activity was measured to be greater than or equal to 4.0 μM) | – | – | – | – | – | –
14 | CCOC(=O)N1CCC(N2CCC3(CC2)CN(C(=O)N(C)C)c2ccc(F)cc23)CC1 [compound 39] | 65 to 85% | +++ (activity was measured to be less than or equal to 0.7 μM) | > 70% | ++ (activity was measured to be between 0.1 μM and 4.0 μM) | – | – | – | – | – | –
15 | CCOC(=O)N1CCC(CN2CCC3(CC2)COc2ccc(Cl)cc23)CC1 [compound 176] | > 85% | ++ (activity was measured to be between 0.7 μM and 3.0 μM) | 55 to 70% | ++ (activity was measured to be between 0.1 μM and 4.0 μM) | – | – | – | – | – | –
16 | CC(C)OC(=O)N1C2CCC1CC(N1CCC3(CC1)CN(C(=O)N(C)C)c1ccc(F)cc13)C2 (centres unmarked) [compound 108] | 65 to 85% | +++ (activity was measured to be less than or equal to 0.7 μM) | < 55% | ++ (activity was measured to be between 0.1 μM and 4.0 μM) | – | – | – | – | – | –
17 | C1=C[C@H]2C[C@H]1C[C@H]2CN1CCC2(CCc3ccccc32)CC1 [compound 313] | < 65% | + (activity was measured to be greater than or equal to 3.0 μM) | < 55% | + (activity was measured to be greater than or equal to 4.0 μM) | – | – | – | – | – | –
18 | CCOC(=O)N1CCC(N2CCC3(CC2)CN(C(=O)OCC(C)(C)C)c2ccc(F)cc23)CC1 [compound 63] | < 65% | +++ (activity was measured to be less than or equal to 0.7 μM) | < 55% | + (activity was measured to be greater than or equal to 4.0 μM) | – | – | – | – | – | –
19 | CN(C)C(=O)N1CC2(CCN(CC3CCN(c4nccs4)C3)CC2)c2cc(F)ccc21 (centres unmarked) [compound 451] | – | – | – | – | ++ (activity was measured to be between 0.7 μM and 3.0 μM) | +++ (activity was measured to be less than or equal to 0.1 μM) | – | – | – | –
20 | CN(C)C(=O)N1C2CCC1CC(N1CCC3(CC1)COc1ccc(F)cc13)C2 (centres unmarked) [compound 203] | 65 to 85% | +++ (activity was measured to be less than or equal to 0.7 μM) | < 55% | ++ (activity was measured to be between 0.1 μM and 4.0 μM) | – | – | – | – | – | –
21 | O=C(O[C@@H]1CCOC1)N1C2CCC1CC(N1CCC3(CCc4ccccc43)CC1)C2 (some centres unmarked) [compound 43] | > 85% | +++ (activity was measured to be less than or equal to 0.7 μM) | > 70% | + (activity was measured to be greater than or equal to 4.0 μM) | – | – | – | – | – | –
22 | CN(C)C(=O)N1CC2(CCN(C3CCN(c4cccc(F)c4)CC3)CC2)c2cc(F)ccc21 [compound 438] | 65 to 85% | – | 55 to 70% | – | ++ (activity was measured to be between 0.7 μM and 3.0 μM) | +++ (activity was measured to be less than or equal to 0.1 μM) | – | – | – | –
